PMC10734772 (Turkish Journal of Chemistry, 2021)

How the values were obtained:
Assay type in all cases: cell-based
K562 = assay: MTT assay, K562 cells; conditions: Homo sapiens, 24 h
[1] = test system: K562, Nalm-6, Molt-4, Reh, Jurkat, Hek293T cell lines; assay: MTT assay, overall judgement over all cell lines; conditions: overall judgement in words; for 6 and 10: on all cell lines, except Reh
Method in brief: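 MTT viability assay run across a range of compound concentrations in leukemic lines, BCR-ABL positive K562 and BCR-ABL negative Nalm-6, Molt-4, Reh, Jurkat, plus non-leukemic Hek293T. Viability rate calculated per concentration.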

Jurkat = assay: MTT assay, Jurkat cells; conditions: Homo sapiens, 24 h, read-out: Viability rate
Nalm-6 = assay: MTT assay, Nalm-6 cells; conditions: Homo sapiens, 24 h
Method: K562, Jurkat and Molt-4 cell lines were seeded as 4x10^5/ml, Reh and Nalm-6 cell lines were seeded 5x10^5/ml, Hek293T cell line was seed as 2x10^5/ml.
MTT assay is a 3-day test. On the first day, cell count was performed in Bio Rad TC-20 device with the help of trypan blue, each cell line was prepared by diluting to the specified concentrations and seeded in a 96-well plate as 100μL to each well and incubated for 1 day.
On the second day, stock solutions were subsequently diluted to various concentrations (0.3–200 μM) with related medium prior to experiments. Specified concentrations of the compounds were seeded in a 96-well plate as 100μL to each well and incubated for 24 h.
After incubation (on the third day), to precipitate leukemia cells, the cell plate was centrifuged at 1500 rpm for 5 min. […] The 50 μl of supernatant was discarded from each well and 100 μl of DMSO was added to dissolve the formazan. Plates were shaken for 45 min to dissolve the dye. Then the optical density of each well was measured by using Thermo VarioSkan Flush Multimode Reader Quantum ST5-1100 at 570 nm wavelength.
Subsequently, viability rate of the cells at each concentration, as percentage, was determined by following formula (1):
Viability rate (%)=100-[(OD(control)-OD(sample))/OD(control)×100].OD=Optical Density
The IC50 values were calculated by using GraphPad Prism. All the data presented as the mean of 6 replicates. […] Statistical analysis was performed using dose-response inhibition, log(inhibitor) vs response-variable slope, least squares (ordinary) fit.

Molt-4 = assay: MTT assay, Molt-4 cells
Reh = assay: MTT assay, Reh cells; conditions: Homo sapiens, 24 h, read-out: Viability rate
[2] = MTT assay, Hek293T non-leukemic control cells; conditions: human, read-out: Viability rate

COc1ccc(CN2CCN(Cc3ccc(C(=O)Nc4ccc(C)c(Nc5cc(C)ccn5)c4)cc3)CC2)c(OC)c1OC [Compound 10, N-(4-Methyl-3-((4-methylpyridin-2-yl)amino)phenyl)-4-((4-(2,3,4-trimethoxybenzyl)piperazin-1-yl)methyl)benzamide]
viability at 0.3 µM (K562; K562, 0.3 μM, MTT, read-out: Viability rate): 104.1 ± 0.07% | viability at 0.5 µM (K562; K562, 0.5 μM, MTT, read-out: Viability rate): 103.4 ± 0.06% | viability at 1 µM (K562; K562, 1 μM, MTT, read-out: Viability rate): 98.9 ± 0.05% | viability at 3 µM (K562; K562, 3 μM, MTT, read-out: Viability rate): 98.7 ± 0.04% | viability at 5 µM (K562; K562, 5 μM, MTT, read-out: Viability rate): 98.6 ± 0.06% | viability at 10 µM (K562; K562, 10 μM, MTT, read-out: Viability rate): 98.9 ± 0.09% | viability at 15 µM (K562; K562, 15 μM, MTT, read-out: Viability rate): 98.6 ± 0.08% | viability at 20 µM (K562; K562, 20 μM, MTT, read-out: Viability rate): 79.2 ± 0.06% | viability at 30 µM (K562; K562, 30 μM, MTT, read-out: Viability rate): 78.9 ± 0.1% | viability at 50 µM (K562; K562, 50 μM, MTT, read-out: Viability rate): 56.1 ± 0.03% | viability at 70 µM (K562; K562, 70 μM, MTT, read-out: Viability rate): 38.5 ± 0.02% | viability at 100 µM (K562; K562, 100 μM, MTT, read-out: Viability rate): 38.7 ± 0.01% | viability at 150 µM (K562; K562, 150 μM, MTT, read-out: Viability rate): 38.9 ± 0.01% | viability at 200 µM (K562; K562, 200 μM, MTT, read-out: Viability rate): 38.7% | IC50 (K562; K562, MTT, range 0.3–200 μM, six replicates): 35 µM | anticancer activity according to MTT assay results [1]: high anticancer activity | viability at 0.3 µM (Jurkat; 0.3 μM): 73 ± 0.1% | viability at 0.5 µM (Jurkat; 0.5 μM): 71.7 ± 0.1% | viability at 1 µM (Jurkat; 1 μM): 70.9 ± 0.08% | viability at 3 µM (Jurkat; 3 μM): 69.4 ± 0.03% | viability at 5 µM (Jurkat; 5 μM): 68.7 ± 0.05% | viability at 10 µM (Jurkat; 10 μM): 68.1 ± 0.09% | viability at 15 µM (Jurkat; 15 μM): 67.5 ± 0.07% | viability at 20 µM (Jurkat; 20 μM): 64.1 ± 0.15% | viability at 30 µM (Jurkat; 30 μM): 61.7 ± 0.07% | viability at 50 µM (Jurkat; 50 μM): 61.4 ± 0.05% | viability at 70 µM (Jurkat; 70 μM): 50.5 ± 0.02% | viability at 100 µM (Jurkat; 100 μM): 38.1 ± 0.2% | viability at 150 µM (Jurkat; 150 μM): 35.9 ± 0.12% | viability at 200 µM (Jurkat; 200 μM): 32.5 ± 0.03% | viability at 0.3 µM (Nalm-6; Nalm-6, 0.3 μM, MTT, read-out: Viability rate): 92.7 ± 0.08% | viability at 0.5 µM (Nalm-6; Nalm-6, 0.5 μM, MTT, read-out: Viability rate): 88.6 ± 0.06% | viability at 1 µM (Nalm-6; Nalm-6, 1 μM, MTT, read-out: Viability rate): 87.3 ± 0.07% | viability at 3 µM (Nalm-6; Nalm-6, 3 μM, MTT, read-out: Viability rate): 86.5 ± 0.02% | viability at 5 µM (Nalm-6; Nalm-6, 5 μM, MTT, read-out: Viability rate): 85.5 ± 0.06% | viability at 10 µM (Nalm-6; Nalm-6, 10 μM, MTT, read-out: Viability rate): 84.8 ± 0.08% | viability at 15 µM (Nalm-6; Nalm-6, 15 μM, MTT, read-out: Viability rate): 82.2 ± 0.08% | viability at 20 µM (Nalm-6; Nalm-6, 20 μM, MTT, read-out: Viability rate): 71.9 ± 0.07% | viability at 30 µM (Nalm-6; Nalm-6, 30 μM, MTT, read-out: Viability rate): 54.2 ± 0.07% | viability at 50 µM (Nalm-6; Nalm-6, 50 μM, MTT, read-out: Viability rate): 29.8 ± 0.01% | viability at 70 µM (Nalm-6; Nalm-6, 70 μM, MTT, read-out: Viability rate): 28.8 ± 0.01% | viability at 100 µM (Nalm-6; Nalm-6, 100 μM, MTT, read-out: Viability rate): 28.7 ± 0.01% | viability at 150 µM (Nalm-6; Nalm-6, 150 μM, MTT, read-out: Viability rate): 28.5 ± 0.01% | viability at 200 µM (Nalm-6; Nalm-6, 200 μM, MTT, read-out: Viability rate): 28.7% | IC50 (Nalm-6; Nalm-6, MTT, range 0.3–200 μM, six replicates): 28.7 µM | viability at 0.3 µM (Molt-4; Homo sapiens, MOLT-4, 24 h, Molt-4, 0.3 μM, read-out: Viability rate): 87.9 ± 0.03% | viability at 0.5 µM (Molt-4; Homo sapiens, MOLT-4, 24 h, Molt-4, 0.5 μM, read-out: Viability rate): 86.8 ± 0.02% | viability at 1 µM (Molt-4; Homo sapiens, MOLT-4, 24 h, Molt-4, 1 μM, read-out: Viability rate): 87.7 ± 0.01% | viability at 3 µM (Molt-4; Homo sapiens, MOLT-4, 24 h, Molt-4, 3 μM, read-out: Viability rate): 86.5 ± 0.02% | viability at 5 µM (Molt-4; Homo sapiens, MOLT-4, 24 h, Molt-4, 5 μM, read-out: Viability rate): 86.2 ± 0.08% | viability at 10 µM (Molt-4; Homo sapiens, MOLT-4, 24 h, Molt-4, 10 μM, read-out: Viability rate): 89.1 ± 0.03% | viability at 15 µM (Molt-4; Homo sapiens, MOLT-4, 24 h, Molt-4, 15 μM, read-out: Viability rate): 88.1 ± 0.04% | viability at 20 µM (Molt-4; Homo sapiens, MOLT-4, 24 h, Molt-4, 20 μM, read-out: Viability rate): 77 ± 0.04% | viability at 30 µM (Molt-4; Homo sapiens, MOLT-4, 24 h, Molt-4, 30 μM, read-out: Viability rate): 65.3 ± 0.03% | viability at 50 µM (Molt-4; Homo sapiens, MOLT-4, 24 h, Molt-4, 50 μM, read-out: Viability rate): 52.1 ± 0.03% | viability at 70 µM (Molt-4; Homo sapiens, MOLT-4, 24 h, Molt-4, 70 μM, read-out: Viability rate): 42.8 ± 0.01% | viability at 100 µM (Molt-4; Homo sapiens, MOLT-4, 24 h, Molt-4, 100 μM, read-out: Viability rate): 40.4 ± 0.01% | viability at 150 µM (Molt-4; Homo sapiens, MOLT-4, 24 h, Molt-4, 150 μM, read-out: Viability rate): 40 ± 0.01% | viability at 200 µM (Molt-4; Homo sapiens, MOLT-4, 24 h, Molt-4, 200 μM, read-out: Viability rate): 40.7 ± 0.01% | Viability rate (Molt-4; Molt-4, 200 μM, 24 h, 200 µM): < 50% | viability at 0.3 µM (Reh; 0.3 μM): 93.4 ± 0.02% | viability at 0.5 µM (Reh; 0.5 μM): 92.4 ± 0.02% | viability at 1 µM (Reh; 1 μM): 92.4 ± 0.01% | viability at 3 µM (Reh; 3 μM): 92.6 ± 0.02% | viability at 5 µM (Reh; 5 μM): 92.8 ± 0.02% | viability at 10 µM (Reh; 10 μM): 92.3 ± 0.03% | viability at 15 µM (Reh; 15 μM): 92.6 ± 0.02% | viability at 20 µM (Reh; 20 μM): 91.8 ± 0.01% | viability at 30 µM (Reh; 30 μM): 65.6 ± 0.02% | viability at 50 µM (Reh; 50 μM): 59.5 ± 0.03% | viability at 70 µM (Reh; 70 μM): 59.1 ± 0.02% | viability at 100 µM (Reh; 100 μM): 59.6 ± 0.03% | viability at 150 µM (Reh; 150 μM): 57.4 ± 0.03% | viability at 200 µM (Reh; 200 μM): 55.2 ± 0.03% | viability at 24 h, 0.3 µM ([2]; Hek293T cells (non-leukemic control cell line), 0.3 μM): 82.8 ± 0.02% | viability at 24 h, 0.5 µM ([2]; Hek293T cells (non-leukemic control cell line), 0.5 μM): 78.2 ± 0.01% | viability at 24 h, 3 µM ([2]; Hek293T cells (non-leukemic control cell line), 3 μM): 80.4 ± 0.02% | viability at 24 h, 5 µM ([2]; Hek293T cells (non-leukemic control cell line), 5 μM): 79.1 ± 0.01% | viability at 24 h, 10 µM ([2]; Hek293T cells (non-leukemic control cell line), 10 μM): 80.2 ± 0.02% | viability at 24 h, 15 µM ([2]; Hek293T cells (non-leukemic control cell line), 15 μM): 81.4 ± 0.01% | viability at 24 h, 20 µM ([2]; Hek293T cells (non-leukemic control cell line), 20 μM): 80.8 ± 0.01% | viability at 24 h, 30 µM ([2]; Hek293T cells (non-leukemic control cell line), 30 μM): 82.2 ± 0.03% | viability at 24 h, 50 µM ([2]; Hek293T cells (non-leukemic control cell line), 50 μM): 79.2 ± 0.03% | viability at 24 h, 70 µM ([2]; Hek293T cells (non-leukemic control cell line), 70 μM): 80.2 ± 0.02% | viability at 24 h, 100 µM ([2]; Hek293T cells (non-leukemic control cell line), 100 μM): 80.7 ± 0.01% | viability at 24 h, 150 µM ([2]; Hek293T cells (non-leukemic control cell line), 150 μM): 80 ± 0.01% | viability at 24 h, 200 µM ([2]; Hek293T cells (non-leukemic control cell line), 200 μM): 81 ± 0.02% | viability at 24 h, 1 µM ([2]; Hek293T cells, 1 μM): 78.1 ± 0.01%
